Assay [1] relates to Diplodia maydis (Dm). The assay can be described thus: Growth inhibition assay of fungal pathogens. Type of assay: cell-based. Conditions: Stenocarpella maydis, 48 h, read-out: Concentration at 90% Inhibition Dm. The protocol:
(§1) Compounds of the present invention were evaluated in a growth inhibition assay to determine the ability to control the growth of fungal pathogens, such as Botrtyis cinerea (Bc), Collectotrichum graminicola (Cg). Diplodia maydis (Dm), Fusarium moniliforme (Fm), Fusarium virguliforme (Fv), Phytophthora capsici (Pc), Rhizoctonia solani (Rs), and Septoria tritici (St). Compounds to be tested were dissolved in DMSO at 2.5 mg/ml to produce compound stock solutions (“stocks”). Stocks were diluted with DMSO by a five-fold dilution in a 96-well stock plate, and two sets of final concentrations of 50, 10, and 2 ppm or 2, 0.4, and 0.08 ppm were obtained in vitro. A set of positive controls was also prepared, with various concentrations of Soraphen (2, 0.4, and 0.08 ppm), Metalaxyl (1.1, 0.22, and 0.04 ppm), and Metconazole (2, 0.4, and 0.08 ppm or 0.2, 0.04, and 0.008 ppm) after the five-fold dilutions. Negative controls on each plate included 2% DMSO, water, and a blank (media+2% DMSO). Fungal spores were isolated from previously sub-cultured plates of Botrtyis cinerea (Bc). Collectotrichum graminicola (Cg). Diplodia maydis (Dm), Fusarium moniliforme (Fm), Fusarium virguliforme (Fv), Phytophthora capsici (Pc), and Septoria tritici (St). The isolated spores were diluted to individual concentrations with a 17% V8 liquid media. For Rhizoctonia solani (Rs) and Pythium irregulare, 1.5 mm mycelial plugs were used in place of spores and ¼ Potato Dextrose Broth (PDB) was used for dilution. The spore concentrations and plug sizes were based on growth curves generated at 48 hours for each pathogen. In a second 96-well plate, the spores or mycelial plugs, media, diluted compound solutions, and controls were combined. Once the compound was added, a true final concentration of compound in each well was measured by an OD600 reading, which adjusted for any compound precipitation that might have occurred in the well. Plate readings were repeated at both 24 and 48 hours. The blank negative control was used as a background subtraction. Additional visual ratings were performed at both 24 and 48 hours for checking on precipitation and confirming efficacy. Visual and OD600 ratings of the compounds at 48 hours were compared to the 2% DMSO negative control, and the percent of pathogen growth inhibition was determined based on those values.

Assay [2] deals with Rhizoctonia solani (Rs). Put plainly: Growth inhibition assay of fungal pathogens. Type of assay: cell-based. Conditions: 48 h, read-out: Concentration at 90% Inhibition Rs. The method, then: as §1
For assay [3], the system named is Septoria tritici (St). The assay can be described thus: Growth inhibition assay of fungal pathogens. Type of assay: cell-based. Particulars: for IC90: Zymoseptoria tritici, read-out: Concentration at 90% Inhibition St. The method, then: as §1
In assay [4] the test system is Phytophthora capsici (Pc). The assay can be described thus: Growth inhibition assay of fungal pathogens. The format is cell-based. Conditions: for IC90: Phytophthora capsici, read-out: Concentration at 90% Inhibition Pc. The protocol:
as §1

Assay [5] relates to Fusarium moniliforme (Fm). Put plainly: Growth inhibition assay of fungal pathogens. Type of assay: cell-based. Particulars: for IC90: Fusarium verticillioides, 48 h, read-out: Concentration at 90% Inhibition Fm. The method, then:
as §1

Assay [6] has as its system Botrtyis cinerea (Bc). Put plainly: Growth inhibition assay of fungal pathogens. Type of assay: cell-based. Particulars: 48 h, read-out: Concentration at 90% Inhibition Bc. The protocol: as §1
For assay [7], the system named is Collectotrichum graminicola (Cg). Put plainly: Growth inhibition assay of fungal pathogens. Conditions: 48 h, read-out: Concentration at 90% Inhibition Cg. The format is cell-based. The protocol: as §1
The subject of assay [8] is Fusarium virguliforme (Fv). The assay can be described thus: Growth inhibition assay of fungal pathogens. Type of assay: cell-based. Conditions: 48 h. The protocol:
as §1

In assay [9] the target is human (hACC2) ACC2 (Homo sapiens, UniProt O00763). Put plainly: In vitro Acetyl-CoA Carboxylase (ACC) inhibition assay (ADP-Glo), hACC2. Type of assay: biochemical. The protocol: The detailed procedure is as follows. […] 10 μL ADP glo reagent was added. […] 20 μL kinase detection reagent was added.
“NA” stands for “not assayed.”

The subject of assay [10] is C. parapsilosis ATCC 22019. The assay can be described thus: Anti-Fungal (Candida) Activity Assay, broth microtiter MIC. The format is cell-based. Conditions: Lodderomyces parapsilosis, read-out: MIC C. parapsilosis ATCC 22019. The method, then:
(§2) Compounds of the present invention were evaluated in an Anti-Fungal Activity Assay. An exemplary procedure for the assay, which measures the susceptibility of various Candida species to anti-fungal compounds, follows. Compounds to be tested (including fluconazole and amphotericin B) were dissolved in DMSO to obtain a solution having a concentration of 1 mg/mL. […] All species were grown from frozen stock by directly plating on to freshly prepared Sabouraud Dextrose agar (BD, Difco) and incubated overnight in ambient air at 35° C. for 24 h. A direct suspension was prepared in RPMI 1640+MOPS (Lonza, Biowhittaker) by taking individual colonies from the overnight cultures using sterile swabs soaked in sterile saline. The concentration of the suspension was determined using pre-determined standard curves. […] Broth microtiter MIC challenge plates were prepared following CLSI guidelines (M27-A3, Vol. 28 No. 14). The original CLSI guidelines focused on reading Candida MICs after 48 h of incubation. As reading after only 24 h offers a clear advantage of patient care, QC limits are being established for all drugs at 24 h. That being said there are no known interpretive breakpoints for amphotericin B at 24 h and the current fluconazole interpretive breakpoints are based on a 48 h reading. The MIC for the test compounds were recorded at 48 h. All MIC determinations were achieved by visually comparing the growth found in the antibiotic challenged wells to that of the growth control.

In assay [11] the test system is C. albicans ATCC 90028. The description is as above. Type of assay: cell-based. Particulars: read-out: MIC C. albicans ATCC 90028. The method, then: as §2
The subject of assay [12] is C. krusei ATCC 6258. Described as above. The format is cell-based. Particulars: Pichia kudriavzevii, read-out: MIC C. krusei ATCC 6258. The protocol: as §2
Where [13] appears, read: Table 4a, 48 hours, read-out: Concentration at 90% Inhibition Fv.
[14] abbreviates: Table 4b, 48 hours, read-out: Concentration at 90% Inhibition Fv.
The mark [15] stands for this setting: ATCC22019, 3 replicates, MIC recorded at 48 h.
Setting [16] is: ATCC90028, 3 replicates, MIC recorded at 48 h.
[17] abbreviates: ATCC6258, 3 replicates, MIC recorded at 48 h.

SMILES strings stand for the structures. In brackets after ≈: the same amount, converted by molar mass. Where two headings read alike, the source gives them in different places.

human (hACC2) ACC2, sequence (O00763 whole entry): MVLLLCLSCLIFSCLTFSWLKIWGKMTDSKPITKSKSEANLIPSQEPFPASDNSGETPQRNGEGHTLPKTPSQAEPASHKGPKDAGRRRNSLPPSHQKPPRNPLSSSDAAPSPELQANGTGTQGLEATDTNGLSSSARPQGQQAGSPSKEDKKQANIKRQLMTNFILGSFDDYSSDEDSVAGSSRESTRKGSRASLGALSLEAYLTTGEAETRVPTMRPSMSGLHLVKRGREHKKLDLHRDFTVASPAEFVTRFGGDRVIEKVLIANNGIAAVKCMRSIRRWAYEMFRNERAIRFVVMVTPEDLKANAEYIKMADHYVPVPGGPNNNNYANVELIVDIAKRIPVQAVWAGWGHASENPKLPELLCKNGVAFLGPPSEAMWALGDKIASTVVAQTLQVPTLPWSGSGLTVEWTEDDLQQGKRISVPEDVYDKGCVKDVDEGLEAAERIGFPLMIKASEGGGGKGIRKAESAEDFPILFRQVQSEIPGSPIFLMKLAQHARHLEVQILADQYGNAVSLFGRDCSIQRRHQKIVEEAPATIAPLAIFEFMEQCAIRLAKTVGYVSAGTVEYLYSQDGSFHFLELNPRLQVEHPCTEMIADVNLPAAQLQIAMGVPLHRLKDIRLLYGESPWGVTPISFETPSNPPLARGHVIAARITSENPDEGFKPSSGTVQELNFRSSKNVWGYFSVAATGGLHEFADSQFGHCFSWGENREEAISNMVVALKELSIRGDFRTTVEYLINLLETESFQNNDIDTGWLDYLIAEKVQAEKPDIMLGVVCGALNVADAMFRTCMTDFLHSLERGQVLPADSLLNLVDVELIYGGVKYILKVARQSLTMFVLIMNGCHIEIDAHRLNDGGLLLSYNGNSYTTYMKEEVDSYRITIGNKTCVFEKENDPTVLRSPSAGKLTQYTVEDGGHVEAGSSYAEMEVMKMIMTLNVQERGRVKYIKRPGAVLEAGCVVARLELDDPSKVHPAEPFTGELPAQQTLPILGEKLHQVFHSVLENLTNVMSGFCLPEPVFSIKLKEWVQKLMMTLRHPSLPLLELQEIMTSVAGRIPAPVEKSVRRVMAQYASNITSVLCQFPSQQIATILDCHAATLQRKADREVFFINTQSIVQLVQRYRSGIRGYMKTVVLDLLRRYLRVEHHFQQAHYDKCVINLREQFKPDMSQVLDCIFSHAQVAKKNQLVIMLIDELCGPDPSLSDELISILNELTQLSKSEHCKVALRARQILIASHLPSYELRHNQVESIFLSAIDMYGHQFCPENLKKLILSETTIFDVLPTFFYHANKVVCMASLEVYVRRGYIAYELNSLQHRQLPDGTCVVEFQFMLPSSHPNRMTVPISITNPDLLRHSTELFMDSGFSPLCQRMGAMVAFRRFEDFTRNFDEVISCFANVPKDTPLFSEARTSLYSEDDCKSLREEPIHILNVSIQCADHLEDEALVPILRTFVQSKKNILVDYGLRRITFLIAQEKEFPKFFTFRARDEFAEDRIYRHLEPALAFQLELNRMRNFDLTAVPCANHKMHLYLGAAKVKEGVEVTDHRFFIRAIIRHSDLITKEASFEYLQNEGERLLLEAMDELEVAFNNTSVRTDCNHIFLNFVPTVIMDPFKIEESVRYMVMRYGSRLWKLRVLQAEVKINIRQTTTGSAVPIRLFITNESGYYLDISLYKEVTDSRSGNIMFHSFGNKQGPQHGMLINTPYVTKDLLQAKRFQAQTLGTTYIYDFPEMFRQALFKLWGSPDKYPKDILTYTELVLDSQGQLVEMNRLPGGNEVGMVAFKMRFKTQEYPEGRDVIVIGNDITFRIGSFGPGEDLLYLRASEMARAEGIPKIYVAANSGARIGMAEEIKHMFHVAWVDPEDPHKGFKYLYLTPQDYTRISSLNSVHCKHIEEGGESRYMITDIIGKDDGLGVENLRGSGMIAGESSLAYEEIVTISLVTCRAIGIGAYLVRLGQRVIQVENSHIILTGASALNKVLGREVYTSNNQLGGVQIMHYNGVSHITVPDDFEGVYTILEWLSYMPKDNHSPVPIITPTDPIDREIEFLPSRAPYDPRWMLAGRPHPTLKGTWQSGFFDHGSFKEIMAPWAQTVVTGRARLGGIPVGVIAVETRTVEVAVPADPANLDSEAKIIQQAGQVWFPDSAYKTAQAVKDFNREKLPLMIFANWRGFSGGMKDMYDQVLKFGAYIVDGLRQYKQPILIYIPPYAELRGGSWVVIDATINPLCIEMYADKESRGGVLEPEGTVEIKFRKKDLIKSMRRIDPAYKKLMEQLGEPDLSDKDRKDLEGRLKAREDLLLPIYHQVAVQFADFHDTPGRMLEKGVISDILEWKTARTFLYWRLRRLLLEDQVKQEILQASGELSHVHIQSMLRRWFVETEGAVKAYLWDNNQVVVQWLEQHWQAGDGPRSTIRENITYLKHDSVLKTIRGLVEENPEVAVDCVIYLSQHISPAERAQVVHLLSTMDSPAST

In general, IC50 refers to the concentration needed to halve the response being measured. A high value points to lower potency. As usually defined, the MIC is the smallest concentration in the dilution series that meets the test's criterion for growth inhibition. Regarding `COc1ccc(F)cc1[C@H](Cn1c(=O)n(C(C)(C)C(N)=O)c(=O)c2c(C)c(-n3cccn3)sc21)O[C@H]1CC[C@@H](O)CC1` [Compound I-5, 2-(1-((R)-2-(5-fluoro-2-methoxyphenyl)-2-(((s,4S)-4-hydroxycyclohexyl)oxy)ethyl)-5-methyl-2,4-dioxo-6-(1H-pyrazol-1-yl)-1,4-dihydro-thieno[2,3-d]pyrimidin-3(2H)-yl)-2-methylpropanamide], the IC90 in [1] (Table 4a) was > 50 µg/mL; in assay [1] (Table 4b), 10 µg/mL (≈ 16.7 µM); in assay [2] (Table 4a) it was > 50 µg/mL; in [2] (Table 4b) it was 10 µg/mL (≈ 16.7 µM); in assay [3] (Table 4a, 48 hours), > 50 µg/mL; in assay [4] (Table 4a, 48 hours), > 50 µg/mL. For the same molecule, the IC90 in [5] (Table 4a, 48 hours) was 2 µg/mL (≈ 3.34 µM); in assay [5] (Table 4b, 48 hours), 2 µg/mL (≈ 3.34 µM); in [6] (Table 4a), 2 µg/mL (≈ 3.34 µM); in assay [6] (Table 4b), 2 µg/mL (≈ 3.34 µM); in [7] (Table 4a), > 50 µg/mL; in assay [7] (Table 4b), > 50 µg/mL. Besides, the IC90 in [8] (setting [13]) was > 50 µg/mL; in assay [8] (setting [14]) it was 10 µg/mL (≈ 16.7 µM). The “Concentration at 90% Inhibition St” value in assay [3] (Table 4b, 48 hours) is given as “D (“D” provided a compound concentration of >50 ppm at 90% inhibition of fungal pathogens)”. Further, the “Concentration at 90% Inhibition Pc” value in assay [4] (Table 4b, 48 hours) was “D (“D” provided a compound concentration of >50 ppm at 90% inhibition of fungal pathogens)”. The IC50 in [9] fell in the range of 0.003 to 0.01 µM. Also, the MIC lay in the range of 2.1 to 4 µg/mL (≈ 3.5 to 6.67 µM) in [10] (setting [15]), 1.1 to 2 µg/mL (≈ 1.83 to 3.34 µM) in assay [11] (setting [16]) and 1.1 to 2 µg/mL (≈ 1.83 to 3.34 µM) in assay [12] (setting [17]).

Take `COc1ccc(F)cc1[C@H](Cn1c(=O)n(C(C)(C)C(=O)NC(C)C)c(=O)c2c(C)c(-n3cccn3)sc21)OC1CCOCC1` [Compound I-6, (R)-2-(1-(2-(5-fluoro-2-methoxyphenyl)-2-((tetrahydro-2H-pyran-4-yl)oxy)ethyl)-5-methyl-2,4-dioxo-6-(1H-pyrazol-1-yl)-1,4-dihydrothieno[2,3-d]pyrimidin-3(2H)-yl)-N-isopropyl-2-methylpropanamide]: the IC90 in assay [1] (Table 4a) was 10 µg/mL (≈ 15.9 µM); in assay [1] (Table 4b) it was 2 µg/mL (≈ 3.19 µM); in [2] (Table 4a), > 50 µg/mL; in assay [2] (Table 4b) it was 10 µg/mL (≈ 15.9 µM); in [3] (48 h, Table 4a) it was > 50 µg/mL; in assay [3] (48 h, Table 4b) it was > 50 µg/mL. In addition, the IC90 in [4] (48 h, Table 4a) was > 50 µg/mL; in [4] (48 h, Table 4b), > 50 µg/mL; in assay [5], 0.4 µg/mL (≈ 0.637 µM); in assay [6] (Table 4a) it was 2 µg/mL (≈ 3.19 µM); in assay [6] (Table 4b), 2 µg/mL (≈ 3.19 µM); in assay [7] (Table 4a), 10 µg/mL (≈ 15.9 µM). Besides, the IC90 is 2 µg/mL (≈ 3.19 µM) in assay [7] (Table 4b); 2 µg/mL (≈ 3.19 µM) in [8] (read-out: Concentration at 90% Inhibition Fv, Table 4a, 48 hours); 2 µg/mL (≈ 3.19 µM) in [8] (read-out: Concentration at 90% Inhibition Fv, Table 4b, 48 hours). The “Concentration at 90% Inhibition Fm” value in [5] (Table 4b, 48 hours) is “A (“A” provided a compound concentration of 0.4 ppm at 90% inhibition of fungal pathogens)”. Also, the IC50 in [9] was 0.01 to 0.04 µM. In addition, the MIC in [10] (ATCC22019, 48 h) was in the range of 1.1 to 2 µg/mL (≈ 1.75 to 3.19 µM); in assay [11] (ATCC90028, 48 h) it was 0.25 to 1 µg/mL (≈ 0.398 to 1.59 µM); in [12] (ATCC6258, 48 h) it was 0.25 to 1 µg/mL (≈ 0.398 to 1.59 µM).

For the molecule `COc1ccc(F)cc1[C@H](Cn1c(=O)n(C(C)(C)C(=O)N2CCCC2)c(=O)c2c(C)c(-n3cccn3)sc21)OC1CCOCC1` [Compound I-7, (R)-1-(2-(5-fluoro-2-methoxyphenyl)-2-((tetrahydro-2H-pyran-4-yl)oxy)ethyl)-5-methyl-3-(2-methyl-1-oxo-1-(pyrrolidin-1-yl)propan-2-yl)-6-(1H-pyrazol-1-yl)thieno[2,3-d]pyrimidine-2,4(1H,3H)-dione], the IC90 is 10 µg/mL (≈ 15.6 µM) in assay [1] (Table 4a); 2 µg/mL (≈ 3.13 µM) in [1] (Table 4b); 2 µg/mL (≈ 3.13 µM) in [2] (Table 4a); 2 µg/mL (≈ 3.13 µM) in [2] (Table 4b); > 50 µg/mL in [3] (Table 4a, 48 hours); > 50 µg/mL in assay [4] (Table 4a, 48 hours). Besides, the IC90 was found to be 0.08 µg/mL (≈ 0.125 µM) in assay [5] (Table 4a, 48 hours); 0.08 µg/mL (≈ 0.125 µM) in assay [5] (Table 4b, 48 hours); 2 µg/mL (≈ 3.13 µM) in assay [6] (Table 4a); 2 µg/mL (≈ 3.13 µM) in assay [6] (Table 4b); 0.4 µg/mL (≈ 0.625 µM) in assay [7] (Table 4a); 0.4 µg/mL (≈ 0.625 µM) in [7] (Table 4b). In addition, the IC90 in assay [8] (setting [13]) was > 50 µg/mL; in [8] (setting [14]), 10 µg/mL (≈ 15.6 µM). The “Concentration at 90% Inhibition St” value in assay [3] (Table 4b, 48 hours) is “D (“D” provided a compound concentration of >50 ppm at 90% inhibition of fungal pathogens)”. Further, in assay [4] (Table 4b, 48 hours), the “Concentration at 90% Inhibition Pc” value was “D (“D” provided a compound concentration of >50 ppm at 90% inhibition of fungal pathogens)”. This molecule also had a concentration for half-maximal inhibition (IC50) in [9] of 0.003 to 0.01 µM. Moreover, the MIC in assay [10] (setting [15]) was 1.1 to 2 µg/mL (≈ 1.72 to 3.13 µM); in assay [11] (setting [16]) it was 1.1 to 2 µg/mL (≈ 1.72 to 3.13 µM); in assay [12] (setting [17]), 0.25 to 1 µg/mL (≈ 0.391 to 1.56 µM).

The values above are taken from patent US10941158B2, “Pyrazole ACC inhibitors and uses thereof” (Gilead Apollo, LLC, priority 2015, dated 2021).
